The text below walks through data of PubChem BioAssay (NCI).

Assay in all cases: NCI-60 cell line screen, 48 h
Test [1] has as its system HCT-15 colon.
Test [2] concerns MDA-MB-231 breast.
The test system of test [3] is HT29 colon.
Test [4] concerns SK-OV-3 ovarian.
For test [5], the system named is M14 melanoma.
Test [6] relates to K-562 leukemia.
Test [7] concerns BT-549 breast.
The test system of test [8] is OVCAR-8 ovarian.
For test [9], the system named is ACHN renal.
Test [10] concerns SF-268 CNS.
In test [11] the test system is SR leukemia.
Test [12] concerns SNB-75 CNS.
Test [13] concerns UACC-62 melanoma.
In test [14] the test system is NCI-H522 lung.
Test [15] has as its system OVCAR-5 ovarian.
For test [16], the system named is T-47D breast.
The subject of test [17] is SF-539 CNS.

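Results reflect a 48-hour exposure of cells in 96-well plates to compound at five concentrations. The concentration for full growth arrest is given as TGI.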 Some results are limits rather than exact numbers.

Regarding `CC(=O)Nc1c(S(=O)(=O)c2ccccc2)c(C)c(C)n1CCN(C)C`, the TGI in test [1], in [2], in test [3], in test [4], in test [5] and in [6] was over 100 µM throughout. The TGI in [7], in test [8], in test [9], in test [10], in [11] and in [12] was over 100 µM in each case. Moreover, the TGI in test [13], in [14], in test [15], in test [16] and in test [17] was over 100 µM throughout.
On to `CCOc1cc(C2SCC(=O)N2c2ccc(Oc3ccc(Cl)cc3)c(Cl)c2)ccc1O` (stereo unspecified), for which the TGI in [1] is 37 µM; in test [2], 36 µM; in [3], 31.8 µM; in [4], 37.3 µM; in [5] it was 56.1 µM; in test [6] it was over 100 µM. The TGI in test [7] turned out to be 31.5 µM; in [8] it was 38.2 µM; in test [9], 31.2 µM; in test [10], 30.9 µM; in test [11] it was 25.2 µM; in test [12], 37.3 µM. Moreover, the TGI in test [13] was 30.3 µM; in test [14], 28.1 µM; in [15], 53.3 µM; in [16] it was 40.4 µM; in [17], 32.5 µM.
Take `CCCCNC(=O)c1cc2c(cc1Cl)Sc1nccn1S2(=O)=O`: the TGI in [1], in test [2], in test [3], in [4], in test [5] and in test [6] was over 100 µM in each case. The TGI in test [7], in test [8], in [9], in [10], in [11] and in test [12] was over 100 µM each time. The TGI in [13], in [14], in test [15], in test [16] and in test [17] was over 100 µM each time.
Turning to `Cc1cc(C)n(CC(Cn2nc(C)cc2C)=C(/C(Cl)=C(/Cl)Nc2ccc([N+](=O)[O-])cc2)[N+](=O)[O-])n1`, the TGI in test [1] is over 31.5 µM; in test [2], 25.5 µM; in [3], 11.3 µM; in test [4] it was 14.2 µM; in test [5], 16.6 µM; in test [6], 11.5 µM. For the same molecule, the TGI worked out at 15.7 µM in test [7]; 14.6 µM in test [8]; 11.6 µM in test [9]; 19.8 µM in [10]; 8.49 µM in test [11]; 14.3 µM in [12]. For the same molecule, the TGI in test [13] turned out to be 15.4 µM; in test [14] it was 5.01 µM; in test [15] it was 33.2 µM; in [16], 17.3 µM; in [17], 9.27 µM.
Take `O=C1CSC(/C=C/c2ccccc2)N1c1nc2cc3sc(N4C(=O)CSC4/C=C/c4ccccc4)nc3cc2s1` (stereo unspecified): the TGI was over 100 µM in test [1]; over 100 µM in [2]; over 67 µM in test [3]; over 100 µM in test [4]; over 100 µM in [5]; over 100 µM in test [6]. Moreover, the TGI is over 100 µM in test [7]; over 100 µM in test [8]; over 100 µM in test [9]; over 100 µM in test [10]; over 83.7 µM in test [11]; over 100 µM in test [12]. The TGI is over 100 µM in test [13]; over 100 µM in [14]; over 100 µM in test [15]; over 100 µM in [16]; 9.61 µM in [17].
Consider `C=C1C(=O)O[C@H]2C/C(C)=C/CC[C@@]3(C)O[C@](C)(CC[C@@H]3I)[C@@H](I)C[C@@H]12`, for which the TGI in test [1] was 12.2 µM; in test [2] it was 14.7 µM; in [3], 14.9 µM; in [4], 14.4 µM; in [5] it was 27.1 µM; in [6], 29.9 µM. The TGI in test [7] turned out to be 12.4 µM; in test [8] it was 10.1 µM; in test [9] it was 13.6 µM; in test [10], 14.4 µM; in [11] it was 8.2 µM; in test [12] it was 12.4 µM. The TGI in [13] is 12 µM; in [14], 8.64 µM; in test [15], 26.2 µM; in [16], 15 µM; in test [17], 14.4 µM.
For the molecule `O=C1/C(=C\Oc2ccc(F)cc2)N2CCC1CC2`, the TGI in test [1], in test [2], in test [3], in [4], in test [5] and in [6] was over 100 µM in each case. Besides, the TGI in test [7] was over 100 µM; in test [8], over 100 µM; in test [9], over 100 µM; in [10], over 100 µM; in [11], 63.1 µM; in test [12], over 100 µM. For the same molecule, the TGI in test [13], in test [14], in [15], in test [16] and in test [17] was over 100 µM each time.
In the case of `Oc1ccc(O)c(CNc2ccc(C(O)C(F)(F)F)cc2)c1` (stereo unspecified), the TGI in [1] is 30.7 µM; in [2], 33.7 µM; in [3], over 100 µM; in test [4] it was over 100 µM; in [5] it was 35.5 µM; in test [6], over 100 µM. Moreover, the TGI in test [7] is 28.2 µM; in test [8] it was over 100 µM; in test [9], 26.6 µM; in test [10], 66 µM; in test [11], 83.6 µM; in test [12] it was over 100 µM. Also, the TGI was 35.8 µM in test [13]; 5.67 µM in [14]; 40.8 µM in [15]; 61.5 µM in test [16]; 21.1 µM in [17].
Consider `c1ccc2c(Cc3[nH]c4ccccc4c3Cc3c[nH]c4ccccc34)c[nH]c2c1`, for which the TGI in [1] turned out to be 10.5 µM; in [2], 5.29 µM; in [3] it was 6.07 µM; in test [4], 15.4 µM; in test [5] it was 6.71 µM; in test [6], 10.5 µM. Also, the TGI in [7] is 19.5 µM; in test [8] it was 35.6 µM; in test [9], over 36 µM; in test [10], 4.86 µM; in test [11] it was 15.1 µM; in test [12] it was 9.69 µM. Moreover, the TGI in test [13] is over 32.4 µM; in test [14], 3.76 µM; in test [15], 8.93 µM; in test [16] it was 12.8 µM; in test [17] it was 7.03 µM.
As for `CC(NC(=O)/C(=C/c1ccccc1)NC(=O)c1ccccc1)C(=O)O` (stereo unspecified), the TGI in test [1], in [2], in [3], in test [4], in test [5] and in test [6] was over 100 µM throughout. For the same molecule, the TGI in [7], in test [8], in test [9], in test [10], in [11] and in test [12] was over 100 µM each time. Further, the TGI in [13] is over 100 µM; in [14] it was over 100 µM; in test [15], over 100 µM; in [16] it was over 100 µM; in test [17], 96.6 µM.
For `Cc1cc(S(=O)(=O)Nc2n[nH]c(Nc3ccc(Cl)cc3)n2)c(S)cc1Cl`, the TGI in test [1], in [2], in test [3], in [4], in test [5] and in test [6] was over 100 µM throughout. In addition, the TGI in test [7], in test [8], in test [9], in test [10], in [11] and in test [12] was over 100 µM each time. Moreover, the TGI in test [13], in test [14], in test [15], in test [16] and in [17] was over 100 µM throughout.
On to `O=c1ccn(CC2(CO)CCC2)c(=O)[nH]1`, for which the TGI in [1], in test [2], in test [3], in [4], in test [6] and in test [7] was over 100 µM in each case. In addition, the TGI in [8], in test [9], in test [10], in test [11], in [12] and in test [13] was over 100 µM throughout. Further, the TGI in test [14], in test [15], in test [16] and in test [17] was over 100 µM in each case.
On to `O=c1[nH]c(Cc2ccccc2)nc2c1sc1nc3ccccc3n12`, for which the TGI in test [1], in test [2], in test [3], in test [4], in test [5] and in [6] was over 100 µM each time. Moreover, the TGI in test [7], in test [8], in test [9], in test [10], in test [11] and in test [12] was over 100 µM throughout. Moreover, the TGI in [13], in [14], in test [15], in [16] and in test [17] was over 100 µM each time.
Turning to `CC(C)C1C(=O)N(c2c(F)c(F)c(F)c(F)c2F)C(=S)N1CCS(=O)c1ccccc1` (stereo unspecified), the TGI in test [1] was 31.8 µM; in [2], 32 µM; in test [3], 27.8 µM; in [4], 34.9 µM; in test [5], 30.6 µM; in test [6], 39.6 µM. Further, the TGI was 30.9 µM in test [7]; 32.6 µM in [8]; 37.1 µM in [9]; 32.6 µM in [10]; 16.2 µM in test [11]; over 58.7 µM in test [12]. Also, the TGI in test [13] came out at 34.9 µM; in test [14] it was 12.6 µM; in [15], 32.5 µM; in [16] it was 32.5 µM; in test [17] it was 36.2 µM.
On to `C=C=C(CC1CCCCC1=O)S(=O)(=O)c1ccccc1` (stereo unspecified), for which the TGI in test [1], in test [2], in [3], in test [4], in test [5] and in test [6] was over 10 µM in each case. Further, the TGI is over 10 µM in test [7]; over 10 µM in [8]; over 10 µM in test [9]; over 10 µM in test [10]; over 6.03 µM in test [11]; over 10 µM in [12]. For the same molecule, the TGI in test [13] is over 10 µM; in test [14], 6.71 µM; in test [15] it was over 10 µM; in [16] it was over 10 µM; in test [17], over 10 µM.
As to `COc1cc(OC)c2c(c1)OC(c1ccccc1)CC2=O` (stereo unspecified), the TGI in [1], in test [2], in test [3], in test [4], in [5] and in test [6] was over 10 µM throughout. Moreover, the TGI in test [7], in test [8], in test [9], in test [10], in test [11] and in [12] was over 10 µM each time. Also, the TGI in [13], in test [14], in test [15], in [16] and in [17] was over 10 µM each time.
